“Also recorded” adds a separate entry of the source. Like-named read-outs stand apart in the source and are kept apart here.
Legend:
[1] = system: resistant or refractory, advanced NHL; assay: Phase I dose escalation trial of Compound 1 oral monotherapy in NHL (NCT03328078); format: in vivo, human
Experimental: Seven dosing cohorts included 50 and 100 mg QD, and 50, 100, 200, 300, or 400 mg BID of daily continuous oral monotherapy in 21-Day cycles. Objective included safety and tolerance (primary), pk/pd and early efficacy (secondary), and biomarker correlations (exploratory). 31 patients with resistant or refractory, advanced NHL have been enrolled.

WM = format: in vivo, human
Experimental: The patient remained asymptomatic for over 4 years with a slow increase in m-protein and IgM during that time. By mid-2017 they started to experience increased fatigue. […] There was no evidence of CXCR4 genomic alteration. […] Several options were discussed including clinical trials and standard of care Bruton’s tyrosine kinase inhibitor (BTKi) therapy.
Baseline testing in December 2018 included a bone marrow biopsy showing 5-10% involvement by WM, m-protein of 1.66 g/dL, IgM 2,801 mg/dL, and a computed tomography scan without pathological lymphadenopathy or hepatosplenomegaly. Quantitative immunoglobulins and serum protein electrophoresis were obtained each cycle to determine response to treatment (FIG. 1).
The patient initiated treatment at the first dose level, 50 mg. […] Using a standard 3+3 design the subsequent dose level, 100 mg po BID, was cleared per protocol. Considering evidence of response without noted toxicity, the patient was a candidate to escalate to 100 mg po BID starting with cycle 7 day 1 in April 2019. […] They reported a significant improvement in their quality of life with resolution of fatigue and returned to a rigorous daily exercise program that they had been unable to perform for the last 2 years due to WM-related symptoms. In August 2019 they were noted to have an asymptomatic grade 2 creatine phosphokinase (CPK) elevation, extensive work-up and physical exam was unrevealing. […] During cycles 15 through 20, while on the 200 mg po BID dose, the patient’s IgM plateaued around 1500 mg/dL and m-protein plateaued near 0.9 g/dL. Based on evolving safety data at higher dose levels, the patient was escalated to […] starting with cycle 20 in 1/2020.

[2] = 200 mg po BID, cycles 15 through 20

SMILES: Cc1cc(-c2nc(C(=O)Nc3cc4oc(N5CCOCC5)nc4nc3N3CC[C@@H](O)C3)co2)ccn1 [Compound 1]
- safety and tolerance overall ([1]; 50 mg QD to 400 mg BID): well tolerated; also recorded: good safety and tolerance
- Anemia, Grade 3 or Higher ([1]; 200 mg BID N=5): 0 n (%) [E]
- Thrombocytopenia, All Grades ([1]; 200 mg BID N=5): 0 n (%) [E]
- Thrombocytopenia, Grade 3 or Higher ([1]; 200 mg BID N=5): 0 n (%) [E]
- Anemia, Grade 3 or Higher ([1]; 300 mg BID N=6): 0 n (%) [E]
- Thrombocytopenia, All Grades ([1]; 300 mg BID N=6): 0 n (%) [E]
- Thrombocytopenia, Grade 3 or Higher ([1]; 300 mg BID N=6): 0 n (%) [E]
- Neutropenia, Grade 3 or Higher ([1]; 400 mg BID N=8): 0 n (%) [E]
- Tumor Reduction ([1]; DLBCL (transformed MZL), initial 50 mg qd, final 50 mg qd): 24%
- Tumor Reduction ([1]; DLBCL-ABC, initial 400 mg bid, final 400 mg bid): 42%
- Tumor Reduction ([1]; DLBCL, initial 50 mg bid, final 50 mg bid): 11%
- Tumor Reduction ([1]; FL, initial 100 mg qd, final 50 mg qd): 49%
- Tumor Reduction ([1]; LPL, initial 200 mg bid, final 300 mg bid *): 20%
- Tumor Reduction ([1]; MALT/MZL, initial 400 mg bid, final 300 mg bid*): 25%
- Tumor Reduction ([1]; MZL, initial 400 mg bid, final 400 mg bid): 5%
- Tumor Reduction ([1]; WM, initial 50 mg bid, final 300 mg bid *): 66%
- pharmacodynamic changes, cytokines ([1]; in vivo): cytokine reductions
- pharmacokinetics, exposure versus dose ([1]; in vivo): dose-proportional increases in exposure
- clinical activity ([1]; summary): preliminary clinical activity
- pharmacokinetic properties ([1]; summary): desirable pharmacokinetic properties
- disease control ([1]; treatment duration between < 1 and 18+ months): sustained disease control
- IgM (WM; 50 mg, cycle 6 day 1): 2639 mg/dL
- IgM (WM; 50 mg, during first 2 cycles, baseline 2801 mg/dL): 2866 mg/dL
- m-protein (WM; 50 mg, first six 21-day cycles, baseline 1.66 g/dL): 1.55 g/dL
- response (WM; 100 mg po BID, cycles 7 and 8): stable disease (SD)
- IgM plateau (WM; [2]): around 1500 mg/dL
- m-protein plateau (WM; [2]): ~0.9 g/dL
- IgM (WM; 300 g po BID from cycle 20, C22 day 1): 1241 mg/dL
- m-protein (WM; after 100 mg po BID cycles 7-8, prior to 200 mg BID escalation): 1.37 g/dL
- m-protein (WM; from cycle 20, C22 day 1): 0.68 g/dL

— patent publication US20230310444A1, “COMPOSITIONS AND METHODS FOR TREATING DISEASES AND DISORDERS” (Curis, Inc., priority 2020, published 2023)
